{"source": "patent US9889115B2", "about": "“Fitness assay and associated methods” (priority 1998, dated 2018)", "key": {"[1]": {"molecular_target": "T1, wild-type HIV-1 (WT) protease (Human immunodeficiency virus type 1 group M subtype B, UniProt P04585)", "T1 construct": "the proteases of wild-type HIV-1 (WT)", "assay": "continuous fluorogenic HIV protease assay", "assay_type": "biochemical", "conditions": "WT (Table 7)", "description": "(§1) This example describes the protocol for the sensitive continuous fluorogenic assay for HIV protease of the present invention and its application. […] The inhibition constant for wild-type HIV-1, Kimnt/Kiwt ratio, and vitality were measured.\n(§2) The reaction was initiated by the addition of 5 μl of substrate stock solution in water. […] The initial rate of hydrolysis was calculated by second degree polynomial fit using SLM AB2 2.0 operating software.\n(§3) For inhibition studies, inhibitors were prepared as stock solutions at different concentrations in dimethylsulfoxide. […] The reaction was initiated by the addition of 5 μl of substrate stock solution in water. For data analysis, the mathematical model for tight-binding inhibitors was used."}, "[2]": {"test_system": "HIV-1LAI", "assay": "MT-2 cells, MTT assay", "assay_type": "cell-based", "conditions": "HIV-1LAI; MT-2/MTT, day 7", "description": "All drug sensitivities were performed in triplicate. […] The IC50's were determined using the MTT assay on day 7 of culture. All sensitivities were determined in […]."}, "[3]": {"test_system": "HIV-1LAI", "assay": "PHA-PBMC assay, p24 Gag protein production", "assay_type": "cell-based", "conditions": "HIV-1LAI; PBMC/p24, day 7 (Table 8)"}, "[4]": {"test_system": "HIV-1BAL", "assay": "PHA-PBMC assay, p24 Gag protein production", "assay_type": "cell-based", "conditions": "HIV-1Ba-L; PBMC/p24, day 7 (Table 8)"}, "[5]": {"test_system": "wild-type HIV", "assay": "wild-type antiretroviral activity (Table 4)", "conditions": "Human immunodeficiency virus 1, read-out: ID50"}, "[6]": {"molecular_target": "T2, HIV-1 protease G48V/V82A (Human immunodeficiency virus type 1 group M subtype B, UniProt P04585, G536V/V570A)", "T2 construct": "proteases containing the deleterious drug resistance associated mutations V82F/I84V and G48V/V82A", "assay": "continuous fluorogenic HIV protease assay", "assay_type": "biochemical", "description": "This example describes the protocol for the sensitive continuous fluorogenic assay for HIV protease of the present invention and its application. […] 21702-1201, upon written request. The inhibition constant for wild-type HIV-1, Kimnt/Kiwt ratio, and vitality were measured. (See Gulnik et al., Biochemistry, 34, 9282-9287 (1995). Protease activity was measured using the fluorgenic substrate Lys-Ala-Arg-Val-Tyr-Phe(NO2)-Glu-Ala-Nle-NH2 (Bachem Bioscience, Inc.). (See Peranteau et al., D.H. (1995) Anal. Biochem.).\nThe reaction was initiated by the addition of 5 μl of substrate stock solution in water. Increase in fluorescence intensity at the emission maximum of 306 nm (excitation wavelength was 277 nm) was monitored as a function of time using Aminco Bowman-2 luminescence spectrometer (SLM Instruments, Inc.). The initial rate of hydrolysis was calculated by second degree polynomial fit using SLM AB2 2.0 operating software.\nas §3, with “used. (See Williams and Morrison (1979), In: Methods of Enzymol. 63, (ed. D. L. Purich), 437-467, Academic Press, NY, London). […]” for “used.”\nThis example describes the inhibitory activity of compounds 35 (FIG. 5A), 36 (FIG. 5B), 37 (FIG. 5C) and 38 (FIG. 5D). In accordance with the technique disclosed in Example 13 above, the inhibitory activity of these compounds was tested against proteases of the wild-type HIV-1. Compound 36, 37 and 38 were also tested against proteases containing the deleterious drug resistance associated mutations V82F/I84V and G48V/V82A. Fitness was determined in accordance with Example 13."}, "[7]": {"molecular_target": "HIV-1 protease V82F/I84V", "assay": "continuous fluorogenic HIV protease assay", "assay_type": "biochemical", "description": "as §1, §2, §3"}, "[8]": {"molecular_target": "T3, HIV-1 protease V82F/I84V (Human immunodeficiency virus type 1 group M subtype B, UniProt P04585, I572V/V570F)", "T3 construct": "the proteases of wild-type HIV-1 (WT) and various mutant enzymes", "assay": "continuous fluorogenic HIV protease assay", "assay_type": "biochemical", "conditions": "V82F/I84V (Table 7)", "description": "as §1, §2, §3"}}}
{"compound": "CC(C)CN(C[C@@H](O)[C@H](Cc1ccccc1)NC(=O)O[C@H]1CO[C@H]2OCC[C@H]21)S(=O)(=O)c1ccc(CN)cc1", "note": "[Compound 35]", "values": [{"measurement": "KI-wt/KI-mut", "setting": "[1]", "result": 1}, {"measurement": "Ki", "setting": "[1]", "result": 0.081, "unit": "nM"}, {"measurement": "IC50", "setting": "[2]", "result": 28, "unit": "nM"}, {"measurement": "IC50", "setting": "[3]", "result": 20, "unit": "nM"}, {"measurement": "IC50", "setting": "[4]", "result": 13, "unit": "nM"}]}
{"compound": "COc1ccc(S(=O)(=O)N(CC(C)C)CC(O)C(Cc2ccccc2)NC(=O)OC2COC3OCCC23)cc1", "note": "(stereo not shown)", "values": [{"measurement": "IC50", "setting": "[5]", "result": 1.4, "unit": "nM"}]}
{"compound": "CC(C)CN(C[C@@H](O)[C@H](Cc1ccccc1)NC(=O)O[C@H]1CO[C@H]2OCC[C@H]21)S(=O)(=O)c1cccc(O)c1", "note": "[Compound 36]", "values": [{"measurement": "KI-wt/KI-mut", "setting": "[6]; G48V/V82A", "result": ">3.0"}, {"measurement": "Ki", "setting": "[6]; G48V/V82A", "result": 0.0153, "unit": "nM"}, {"measurement": "Fitness", "setting": "[6]; G48V/V82A relative to WT", "result": ">0.8"}, {"measurement": "Ki", "setting": "[1]", "result": "< 0.005", "unit": "nM"}, {"measurement": "KI-wt/KI-mut", "setting": "[7]; V82F/I84V (Table 7)", "result": ">4.9"}, {"measurement": "Fitness", "setting": "[7]; V82F/I84V relative to WT (Table 7)", "result": ">0.8"}, {"measurement": "Ki", "setting": "[8]", "result": 0.0244, "unit": "nM"}, {"measurement": "IC50", "setting": "[2]", "result": 17, "unit": "nM"}, {"measurement": "IC50", "setting": "[3]", "result": 34, "unit": "nM"}, {"measurement": "IC50", "setting": "[4]", "result": 38, "unit": "nM"}]}
